The source of these data is ChEMBL document CHEMBL1132211, “The role of waters in docking strategies with incremental flexibility for carbohydrate derivatives: heat-labile enterotoxin, a multivalent test case” (J Med Chem, 1999).

A short description of the assay: Inhibitory concentration against Escherichia coli heat-labile enterotoxin (LT) binding to ganglioside GD1b was determined by ELISA assay. On the technique in general: An ELISA detects its analyte on a solid surface through an enzyme-linked reagent.

pIC50: −log10 of the molar value.

For LACTOSE, ANHYDROUS, the pIC50 (as a rule, the negative decadic logarithm of the IC50, by convention in mol/L) is 4.35.
Next, `OC[C@H]1O[C@@H](S[C@@H]2O[C@H](CO)[C@H](O)[C@H](O)[C@H]2O)[C@H](O)[C@@H](O)[C@H]1O` [THIODIGALACTOSIDE]: 5.40; `O=C[C@H](O)[C@@H](O)[C@@H](O)[C@H](O)CO` [GALACTOSE]: 4.24.
Next, `O=[N+]([O-])c1cccc(O[C@@H]2O[C@H](CO)[C@H](O)[C@H](O)[C@H]2O)c1`: 6.22; `O=C(O)[C@H](O)[C@@H](O)[C@H](O)[C@H](O)CO[C@@H]1O[C@H](CO)[C@H](O)[C@H](O)[C@H]1O`: 5.15; `OC[C@H]1O[C@@H](O[C@@H]2[C@@H](CO)O[C@](O)(CO)[C@H]2O)[C@H](O)[C@@H](O)[C@H]1O` [LACTULOSE]: 4.82.
